Source: patent US7504371B2, “Organic catalyst with enhanced enzyme compatibility” (The Procter & Gamble Company, priority 2005, dated 2009)
Counter-ions that a name gives are not always drawn.

Legend:
Format in all cases: biochemical
Duramyl = experiment: Organic Catalyst/Enzyme Compatibility Test (alpha amylase activity assay), Duramyl; settings: (Ac/Ab)×100; [Peracetic Acid]=5.0 ppm; [organic catalyst]=0.5 ppm; 40° C.; detergent solution
Procedure: (§1) Organic Catalyst/Enzyme Compatibility Test
(§2) The test described below uses an alpha amylase activity assay to measure the impact of organic catalysts on the enzyme.
(§3) Equipment. UV/V is spectrophotometer capable of measuring @ 415 nm, heated magnetic stirrer capable of 40° C., 5 mL Luer lock syringe and filters (Acrodisc 0.45 μm), pH meter, and balance (4-place analytical).
(§4) Reagents. […]
(§5) • a.) TRIS Assay Buffer. […] Mix 6 μL of filtered sample with 250 μL of amylase reagent in a cuvette and place the cuvette in a UV/VIS spectrophotometer and monitor change in absorbance at 415 nm. Determine length of time (tE) to the nearest second required to obtain an absorbance reading of 1.0 for each enzyme. […] Once sample and reagent are mixed, record the absorbance at tE for the respective enzyme. Designate such absorbance Ab. • c.) Analysis of sample with enzyme, peracetic acid, and organic catalyst. […] Once sample and reagent are mixed, record the absorbance at tE for the respective enzyme. Designate such absorbance Ac. […] The ECV for any specific enzyme is (Ac/Ab)×100 where Ab and Ac are the values determined in Steps 2.)b.) and 2.)c.), respectively, for that enzyme. • b.) The ECV for a given organic catalyst is the average of the individual ECV values for the three enzymes. […]

[1] = test system: Termamyl, Natalase, and Duramyl; experiment: Organic Catalyst/Enzyme Compatibility Test, average of the three amylases; settings: ECV=(ECVter+ECVdur+ECVnat)/3; [Peracetic Acid]=5.0 ppm; [organic catalyst]=0.5 ppm
Procedure: as §1, §2, §3, §4, §5

Natalase = experiment: Organic Catalyst/Enzyme Compatibility Test (alpha amylase activity assay), Natalase; settings: (Ac/Ab)×100; [Peracetic Acid]=5.0 ppm; [organic catalyst]=0.5 ppm; 40° C.; detergent solution
Procedure: as §1, §2, §3, §4, §5

Termamyl = biological target: T1, Termamyl (Bacillus licheniformis, UniProt P06278); experiment: Organic Catalyst/Enzyme Compatibility Test (alpha amylase activity assay), Termamyl; settings: (Ac/Ab)×100; [Peracetic Acid]=5.0 ppm; [organic catalyst]=0.5 ppm; 40° C.; detergent solution
T1 construct: purchased Novozymes, Denmark
Procedure: as §1, §2, §3, §4, §5

T1 sequence (P06278 30-512): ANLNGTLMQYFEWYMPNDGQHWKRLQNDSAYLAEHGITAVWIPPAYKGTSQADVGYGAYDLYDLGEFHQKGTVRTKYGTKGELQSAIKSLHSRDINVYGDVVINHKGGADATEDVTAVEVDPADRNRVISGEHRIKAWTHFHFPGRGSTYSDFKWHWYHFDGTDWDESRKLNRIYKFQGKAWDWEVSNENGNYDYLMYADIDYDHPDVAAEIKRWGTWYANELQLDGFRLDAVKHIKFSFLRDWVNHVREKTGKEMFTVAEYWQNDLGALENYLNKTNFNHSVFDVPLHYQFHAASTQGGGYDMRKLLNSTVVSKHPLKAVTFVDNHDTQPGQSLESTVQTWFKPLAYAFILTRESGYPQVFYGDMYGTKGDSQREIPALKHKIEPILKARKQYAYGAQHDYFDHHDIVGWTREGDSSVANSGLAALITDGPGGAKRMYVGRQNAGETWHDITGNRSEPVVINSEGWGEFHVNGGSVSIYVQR

CC(C)(C)OCC(C[N+]1=Cc2ccccc2CC1)OS(=O)(=O)[O-] (stereo not shown) [Entry 1, Sulfuric acid mono-[2-(3,4-dihydro-isoquinolin-2-yl)-1-((1,1-dimethylethoxy)methyl)ethyl] ester, internal salt]
Enzyme Compatibility Values ECVdur (Duramyl): 86
Enzyme Compatibility Values ECV [1]: 65
Enzyme Compatibility Values ECVnat (Natalase): 58
Enzyme Compatibility Values ECVter (Termamyl): 51
